Assay results: paper PMC11192927, “The potential of a novel enzyme-based surface plasmon resonance biosensor for direct detection of dopamine” (Scientific Reports, 2024)

Target: laccase (CotA) (Bacillus sp. HR03, UniProt B9W2C5)
Assay: biochemical

Sequence of laccase (CotA) (B9W2C5 1-513): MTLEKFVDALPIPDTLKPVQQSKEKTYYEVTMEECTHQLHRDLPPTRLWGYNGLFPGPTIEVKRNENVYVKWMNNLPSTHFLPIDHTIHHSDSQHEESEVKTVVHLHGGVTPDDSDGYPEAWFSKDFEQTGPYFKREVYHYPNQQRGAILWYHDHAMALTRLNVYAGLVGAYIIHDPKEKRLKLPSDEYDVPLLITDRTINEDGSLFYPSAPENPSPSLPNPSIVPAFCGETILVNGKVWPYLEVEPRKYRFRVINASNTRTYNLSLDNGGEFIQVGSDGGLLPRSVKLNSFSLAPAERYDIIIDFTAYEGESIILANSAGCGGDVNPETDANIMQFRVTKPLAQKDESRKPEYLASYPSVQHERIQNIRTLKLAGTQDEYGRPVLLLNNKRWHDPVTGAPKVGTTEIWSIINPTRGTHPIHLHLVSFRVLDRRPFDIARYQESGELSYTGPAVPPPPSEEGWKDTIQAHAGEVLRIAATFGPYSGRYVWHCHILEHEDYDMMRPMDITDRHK

SMILES: NCCc1ccc(O)c(O)c1 [dopamine]
- Kd: 48.5 nM
